Test results: ChEMBL document CHEMBL1914376, “Synthesis and in vitro evaluation of 7-methoxy-N-(pent-4-enyl)-1,2,3,4-tetrahydroacridin-9-amine-new tacrine derivate with cholinergic properties” (Bioorg Med Chem Lett, 2011)

Legend:
Acetylcholinesterase [1] = biological target: T1, Acetylcholinesterase (Homo sapiens, UniProt P22303)
Description: Inhibition of human recombinant AChE after 5 mins using spectrophotometer by Ellman's method

Acetylcholinesterase [2] = biological target: T1, Acetylcholinesterase; experiment: Ratio of Tacrine IC50 to compound IC50 for human recombinant AChE
Cholinesterase = Cholinesterase (Homo sapiens, UniProt P06276)
Description: Inhibition of human plasmatic BChE after 5 mins using spectrophotometer by Ellman's method

Acetylcholinesterase [3] = biological target: T1, Acetylcholinesterase; experiment: Ratio of 7-MEOTA IC50 to compound IC50 for human recombinant AChE

T1 sequence (P22303 whole entry): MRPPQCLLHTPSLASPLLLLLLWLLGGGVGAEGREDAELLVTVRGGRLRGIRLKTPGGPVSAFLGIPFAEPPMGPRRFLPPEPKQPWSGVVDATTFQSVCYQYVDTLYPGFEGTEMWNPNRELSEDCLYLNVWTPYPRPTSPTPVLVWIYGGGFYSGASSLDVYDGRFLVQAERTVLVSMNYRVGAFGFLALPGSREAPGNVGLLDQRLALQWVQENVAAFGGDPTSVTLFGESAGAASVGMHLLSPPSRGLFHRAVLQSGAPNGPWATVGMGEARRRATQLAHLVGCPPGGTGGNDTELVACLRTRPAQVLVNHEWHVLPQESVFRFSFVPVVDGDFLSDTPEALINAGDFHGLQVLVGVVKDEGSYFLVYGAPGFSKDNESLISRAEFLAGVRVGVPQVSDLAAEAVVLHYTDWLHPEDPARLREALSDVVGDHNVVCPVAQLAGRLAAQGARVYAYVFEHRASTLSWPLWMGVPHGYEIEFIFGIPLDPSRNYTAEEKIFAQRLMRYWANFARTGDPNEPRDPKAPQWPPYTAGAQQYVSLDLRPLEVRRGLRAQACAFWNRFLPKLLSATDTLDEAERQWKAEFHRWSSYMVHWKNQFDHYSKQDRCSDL
Cholinesterase, sequence (P06276 whole entry): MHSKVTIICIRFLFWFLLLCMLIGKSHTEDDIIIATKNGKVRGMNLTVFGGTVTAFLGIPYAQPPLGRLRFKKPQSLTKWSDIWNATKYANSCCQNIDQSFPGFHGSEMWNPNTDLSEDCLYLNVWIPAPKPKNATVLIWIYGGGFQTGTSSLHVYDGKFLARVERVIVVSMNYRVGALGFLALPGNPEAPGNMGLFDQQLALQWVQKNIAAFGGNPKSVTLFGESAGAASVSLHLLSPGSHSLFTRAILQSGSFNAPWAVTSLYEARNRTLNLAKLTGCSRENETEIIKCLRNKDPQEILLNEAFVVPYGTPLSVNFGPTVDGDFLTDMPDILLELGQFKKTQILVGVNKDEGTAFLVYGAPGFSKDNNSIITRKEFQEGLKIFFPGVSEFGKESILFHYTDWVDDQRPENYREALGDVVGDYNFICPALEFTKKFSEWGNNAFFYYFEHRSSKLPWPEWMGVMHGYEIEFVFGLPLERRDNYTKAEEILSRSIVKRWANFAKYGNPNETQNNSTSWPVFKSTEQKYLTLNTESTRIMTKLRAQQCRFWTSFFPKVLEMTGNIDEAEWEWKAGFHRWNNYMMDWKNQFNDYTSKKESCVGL

| SMILES | IC50 (Acetylcholinesterase [1]) [µM] | Ratio IC50 (Acetylcholinesterase [2]) | IC50 (Cholinesterase) [µM] | Ratio IC50 (Acetylcholinesterase [3]) |
| --- | --- | --- | --- | --- |
| C=CCCCNc1c2c(nc3ccc(OC)cc13)CCCC2 | 2.2 | 10 | 1.1 | 5 |
| COc1ccc2nc3c(c(N4CCCCCN(c5c6c(nc7ccc(OC)cc57)CCCC6)CCCCC4)c2c1)CCCC3 | 4.6 | – | 656 | – |
